# Experimental data from US6516294B1, “Nuclear receptor for 1α,25-dihydroxyvitamin D3 useful for selection of vitamin D3 ligands and a method therefor” (The Regents of the University of California, priority 1999, dated 2003).
# Assays:
# VDR = biological target: T1, VDR (Homo sapiens, UniProt P11473); test: Binding to the VDR relative to 1α,25(OH)2D3; conditions: 1α,25(OH)2D3 as reference
# T1 sequence (P11473 1-427): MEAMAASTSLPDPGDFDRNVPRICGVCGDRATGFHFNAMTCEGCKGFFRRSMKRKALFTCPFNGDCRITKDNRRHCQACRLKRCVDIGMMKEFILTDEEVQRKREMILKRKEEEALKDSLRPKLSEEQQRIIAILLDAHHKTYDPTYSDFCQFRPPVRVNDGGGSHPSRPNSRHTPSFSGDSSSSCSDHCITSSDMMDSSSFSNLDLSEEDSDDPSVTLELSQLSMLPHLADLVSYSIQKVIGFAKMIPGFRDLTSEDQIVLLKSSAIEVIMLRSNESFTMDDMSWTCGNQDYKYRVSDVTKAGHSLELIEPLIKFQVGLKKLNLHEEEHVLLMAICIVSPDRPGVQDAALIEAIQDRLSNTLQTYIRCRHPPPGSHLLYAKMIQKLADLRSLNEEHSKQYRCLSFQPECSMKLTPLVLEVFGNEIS
# Excerpt: (§1) One striking ligand-receptor structure-function relationship for 1α,25(OH)2D3 analogs relates to the chiral center at carbon 20 (see FIG. 7A) of the steroid side chain. The 20-epi analogs are 100-10,000 times more transcriptionally potent than the natural hormone 1α,25(OH)2D3, even though their affinity for the VDR is not greater. It is also known that the side chain of 20-normal versus 20-epi analogs of 1α,25(OH)2D3 is able to access different regions of three-dimensional space around the C/D ring. […] Med. Chem. Lett., 3:1799 (1998).
# (§2) The problem of docking in the VDR LBD a unique analog of 1α,25(OH)2D3 that has a second side chain attached to carbon 20, such as Gemini [21-(3′-hydroxy-3-methylbutyl)-1α,25(OH)2D3], was also evaluated. Thus, Gemini has both a 20-normal and a 20-epi side chain. […] This conclusion is also consistent both with the proposal that the ligand enters the VDR LBD leading with its A-ring and with the unique trypsin sensitivity of a VDR LBD-Gemini complex.
# osteocalcin promoter = test: Transactivation of the osteocalcin promoter; format: cell-based; conditions: more potent than 1α,25(OH)2D3
# Excerpt: as §1
# The seemingly benign structural change of the ligand from a 20-normal to 20-epi 1α,25(OH)2D3 results in a new conformational change in the VDR as assessed by trypsin sensitivity. This conformational change is believed to reflect an altered orientation of helix 12. Thus a VDR with a 20-epi ligand has an enhanced dimerization with RXR, resulting in increased transactivation of the osteocalcin promoter.
# as §2
compound,measurement,setting,value
"C=C1/C(=C\C=C2/CCC[C@]3(C)[C@@H](C(CCCC(C)(C)O)CCCC(C)(C)O)CC[C@@H]23)C[C@H](O)C[C@H]1O [Gemini, 21-(3′-hydroxy-3-methylbutyl)-1α,25(OH)2D3]","binding to the VDR relative to 1α,25(OH)2D3",VDR,40%
same,"potency relative to 1α,25(OH)2D3, transactivation of the osteocalcin promoter",osteocalcin promoter,13 -fold
